# Test results from patent publication US6503490B2, “Deodorant products” (Unilever Home & Personal Care USA, division of Conopco, Inc., priority 2000, dated 2003).
# Target: T1, human diferric transferrin (Homo sapiens, UniProt P02787)
# T1 construct: purchased Sigma Chemicals
# Assay: Transferrin dissociation promotion test (FerroZine, absorption at 562 nm)
# Format: biochemical
# Details: after 24 hours, 10 mmol.l^−1 test material, 37° C., pH 6.5, control 0.111
# Protocol: 2.7 g.l^−1 human diferric transferrin (ex Sigma Chemicals) is incubated at 37° C. in 50 mM HEPES (N-[2-hydroxyethyl]piperazine-N-[2-ethanesulfonic acid]) buffer adjusted to pH 6.5 with sodium hydroxide, together with 0.115 g.l^−1 FerroZine (ex Sigma Chemicals; 3-(2-pyridyl)-5,6-bis(4-phenylsulfonic acid)-1,2,4-triazine, monosodium salt) and 10 mmol.l^−1 of the test material, if water soluble, or 2.5 g.l^−1 of the test material, added as a finely ground powder, if water insoluble.
# After 24 hours, the extent of transferrin dissociation is estimated by eye or spectrophotometrically. Transferrin dissociation promoters lead a purple colouration; in particular, they lead to an absorption at 562 nm of 0.15 or greater. This purple colouration is the result of the production of iron(II) tri(FerroZine) complex. The molar concentration of this complex is equal to the molar concentration of iron dissociated from the transferrin.
# 2.7 g.l^−1 human diferric transferrin (ex Sigma Chemicals) was incubated at 37° C. in 50 mM HEPES (N-[2-hydroxyethyl]piperazine-N′-[2-ethanesulfonic acid]) buffer adjusted to pH 6.5 with sodium hydroxide, together with 0.115 g.l^−1 FerroZine (ex Sigma Chemicals; 3-(2-pyridyl)-5,6-bis(4-phenylsulfonic acid)-1,2,4-triazine, monosodium salt) and 10 mmol.l^−1 of the test material.
# After 24 hours, the extent of transferrin dissociation was estimated spectrophotometrically by measuring absorption at 562 nm (vide supra). The data (see Table 5) illustrate the enhanced transferrin dissociation occurring in the presence of the indicated test materials.
# T1 sequence (P02787 20-698): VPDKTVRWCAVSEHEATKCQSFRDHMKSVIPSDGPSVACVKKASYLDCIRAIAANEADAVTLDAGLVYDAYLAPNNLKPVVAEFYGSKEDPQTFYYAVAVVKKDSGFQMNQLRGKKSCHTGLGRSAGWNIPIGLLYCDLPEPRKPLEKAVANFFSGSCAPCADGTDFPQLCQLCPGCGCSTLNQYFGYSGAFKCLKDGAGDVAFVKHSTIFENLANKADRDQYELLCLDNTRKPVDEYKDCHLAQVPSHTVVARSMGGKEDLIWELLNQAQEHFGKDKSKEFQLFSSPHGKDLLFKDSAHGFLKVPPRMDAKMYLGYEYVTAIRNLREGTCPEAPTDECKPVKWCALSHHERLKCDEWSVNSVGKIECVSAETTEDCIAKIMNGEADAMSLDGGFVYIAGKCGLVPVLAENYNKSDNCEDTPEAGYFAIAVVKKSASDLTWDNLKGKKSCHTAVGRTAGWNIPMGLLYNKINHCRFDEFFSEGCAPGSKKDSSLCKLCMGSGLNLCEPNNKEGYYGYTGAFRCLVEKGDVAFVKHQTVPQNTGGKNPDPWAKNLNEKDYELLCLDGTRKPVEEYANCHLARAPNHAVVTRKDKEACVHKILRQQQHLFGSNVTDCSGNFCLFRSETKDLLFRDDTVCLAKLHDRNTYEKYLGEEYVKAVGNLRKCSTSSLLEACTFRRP
row,Compound,Absorption
1,O=C(O)c1ccc(O)c(O)c1 [Protocatechuic acid],0.391
2,O=C(O)c1ccccc1O [Salicylic acid],0.305
3,"O=S(=O)(O)c1cc(O)c(O)c(S(=O)(=O)O)c1 [Iron, 4,5-dihydroxy-1,3-benzenedisulfonic acid]",0.425

# Tested on: Staphylococcus epidermidis
# Assay: Anti-microbial performance test: growth inhibition of axillary isolate of S. epidermidis in semi-synthetic medium (OD 600 nm)
# Format: cell-based
# Details: concentration of 3×10^−6 mol.dm^−3 or less
# Protocol: An axillary isolate of Staphylococcus epidermidis was grown overnight in 100 ml of tryptone soy broth (TSB, Oxoid Ltd). 10 ml of this culture was taken and subjected to centrifugation. The separated cells were re-suspended in 10 ml of phosphate buffered saline and the centrifugation procedure repeated. The washed cells were re-suspended in 10 ml of phosphate buffered saline to give the inoculum. 100 μl of the inoculum was added to 100 ml of semi-synthetic medium (SSM) containing (NH4)2SO4 (0.066 g),MgSO4.7H2O (0.012 g), KCl (0.1 g), KH2PO4 (0.27 g), Na2HPO4 (1.43 g), thiamin (0.1 mg), biotin (0.05 mg), Peptone P (0.05 g), and glucose (2.0 mmole) which had been previously sterilised by autoclaving at 121° C. for 20 minutes. The pH of the SSM was adjusted to 6.7 with HCl after sterilisation, prior to addition of the inoculum. This control medium was utilised in all of the in vitro inhibition studies. The chelator-containing test media were prepared in a similar manner, the chelator being introduced at a concentration of 3×10^−6 mol.dm^−3 before the pH adjustment with HCl.
# 100 μl of the S. epidermidis inoculum was introduced into the control medium and into test media containing the chelators indicated in Table 2. The cultures were inoculated at 37° C. (with agitation at 200 rpm) for 16 hours, and the optical density of the cultures measured at 600 nm to determine the extent of bacterial growth. By comparison of the optical density of the culture in the presence of chelating agent, to that of the control, the percentage inhibition of growth was established. (Optical density measurements were made on 1 in 4 dilutions of the cultures with 0.9% (w/v) saline, using 1 cm path length cuvettes, on a Pharmacia Biotech Ultrospec 200 Spectrophotometer.)
row,Compound,Significant inhibition of growth of S. epidermidis (at least 30%)
1,"O=C(O)CN(CCN(CCN(CC(=O)O)CC(=O)O)CC(=O)O)CCN(CC(=O)O)CC(=O)O [TTHA, triethylenetetraaminehexaacetic acid]",capable of achieving significant inhibition
2,"O=C(O)CN(CC(=O)O)[C@@H]1CCCC[C@H]1N(CC(=O)O)CC(=O)O (relative stereo) [CDTA, trans-1,2-diaminocyclohexane-N,N,N′,N′-tetraacetic acid]",are not
3,"O=C(O)CN(CCN(CC(=O)O)CC(=O)O)CCN(CC(=O)O)CC(=O)O [DTPA, diethylenetriaminepentaacetic acid]",capable of achieving significant inhibition
4,"O=C(O)CN(CCN(CC(=O)O)CC(=O)O)CC(=O)O [EDTA, ethylenediaminetetraacetic acid]",are not
